A word on the AC50: it is the concentration at which the activity in the assay is half-maximal. The TGI is how far tumour growth fell short of that in controls. Higher therefore signals much slowing of growth.

Experiment [1] deals with ATM-KO LNCAP cells. Kind of experiment: Cell proliferation assay and synergy in isogenic ATM-KO LNCAP cells. Format: cell-based. The conditions noted are these: monotherapy; for AC50: Homo sapiens, LNCaP. The protocol: (§1) Cells in 384-well or 96-well plates were dosed using an Echo 555 (LabCyte, San Jose, CA, USA) or using the HP D300e Digital Dispenser (HP Life Science Dispensing), respectively.
(§2) Live cell count pre- and post-treatment (7 days after treatment) was determined using CellTiter-Glo as per manufacturer's instructions (Promega, Madison, WI, USA; G7570).
(§3) Cell viability was determined with the Sytox Green assay as described in Davies 2012 and the AC50 calculated. The HSA (Highest Single Agent) Synergy Score was calculated according to Bernenbaum 1989.
An isogenic ATM-KO model in LNCAP cells was generated with CRISPR-Cas9 technology.
(§4) Using the method of example 1, these ATM-KO cell lines were determined to be sensitive to AZD5305, with an AC50 of 3 nM, in contrast to the parental (or control) LNCAP cell line which is not sensitive to AZD5305 monotherapy, with an AC50 greater than 10 μM.
(§5) The HSA (Highest Single Agent) Synergy Score was calculated according to Bernenbaum 1989 when the AZD5305 and enzalutamide were used in combination.

Experiment [2] deals with C4-2 cells. Kind of experiment: Cell proliferation assay and combination benefit calculation, C4-2. The conditions noted are these: 168 h, monotherapy, 7 days after treatment. Format: cell-based. The protocol:
(§6) Cell line identification was validated using the CellCheck assay (IDEXX Bioanalytics, Westbrook, ME, USA). All cell lines were validated free of virus Mycoplasma contamination using the MycoSEQ assay (Thermo Fisher Scientific, Waltham, MA, USA) or STAT-Myco assay (IDEXX Bioanalytics). All cell lines were grown RPMI-1640 growth media (Corning 17-105-CV) supplemented with 10% fetal bovine serum (FBS) or, when indicated, 10% charcoal stripped FBS (ThermoFisher Scientific, 12676029) and 2 mM glutamine.
as §1, §2, §3

Experiment [3] relates to LnCAP cells. Kind of experiment: Cell proliferation assay and combination benefit calculation, LnCAP. The conditions noted are these: Homo sapiens, monotherapy. It counts as cell-based. The protocol:
as §6, §1, §2, §3, §4, §5

Experiment [4] deals with LNCaP tumours. Kind of experiment: In vivo pre-clinical model LNCaP (subcutaneous xenograft). The conditions noted are these: 42 days, NOD SCID mice, vs vehicle. The protocol:
LNCaP cells (1×10^7 cells 1:1 in Matrigel) were implanted subcutaneously onto the flank of male NOD SCID mice (aged 5-8 weeks weighing approximately 25-30 g, supplied by Charles River) using a 23-gauge needle.
The mice were dosed for 42 days, with the dose calculated for individual animals on day of dosing, and with a […] dosing volume.
Tumours were measured ×3 per week using digital calipers. The length and width of the tumour will be measured and volume calculated using the following formula: […]
The bodyweight of all mice in the study was measured and recorded 3 times per week; this information was used to calculate precise dosing for each animal.

Experiment [5] relates to CWR22Pc-R1-AD1 cells. The experiment is described as follows: Cell proliferation assay and combination benefit calculation, CWR22Pc-R1-AD1. Particulars: 168 h, monotherapy, 7 days after treatment. Format: cell-based. The protocol: as §6, §1, §2, §3
Experiment [6] deals with C901 tumours. The experiment is described as follows: In vivo pre-clinical model C901 patient derived xenograft (PDX). Particulars: 21 days, NMRI Nude mice, vs vehicle. The protocol: C901 patient derived xenograft (PDX) model was engrafted subcutaneously onto the flank of donor mice and monitored once a week until ethical size (1000-2000 mm^3). When donor tumours reached ethical size, PDX fragments measuring approximately 20 mm^3 were engrafted in the study mice (male NMRI Nude mice, aged 6-9 weeks, supplied by Janvier labs).
The mice were dosed for 21 days, with the dose calculated for individual animals on day of dosing, and with a […] dosing volume.
Tumours were measured ×2 per week using digital calipers. The length and width of the tumour will be measured and volume calculated using the following formula: […]
The bodyweight of all mice in the study was measured and recorded 2 times per week; this information was used to calculate precise dosing for each animal.
(In xenograft studies the graft and the host belong to different species.)

The test system of experiment [7] is VCAP cells. Kind of experiment: Cell proliferation assay and combination benefit calculation, VCAP. Format: cell-based. The conditions noted are these: Homo sapiens, 168 h, monotherapy, 7 days after treatment. The protocol:
as §6, §1, §2, §3

[8] abbreviates: 168 h, LnCAP, 7 days after treatment.
The mark [9] stands for this setting: LnCAP parental (control), Example 2.

On to `CCc1cc2ncc(CN3CCN(c4ccc(C(=O)NC)nc4)CC3)cc2[nH]c1=O` [AZD5305, 5-{4-[(7-ethyl-6-oxo-5,6-dihydro-1,5-naphthyridin-3-yl)methyl]piperazin-1-yl}-N-methylpyridine-2-carboxamide], for which the AC50 is 0.003 µM in experiment [1] (ATM-KO cell lines (clone.1 and clone.2)); 20 µM in experiment [2]; 12 µM in experiment [3] (setting [8]); more than 10 µM in experiment [3] (setting [9]); 0.0316 µM in experiment [5]; 1.6 µM in experiment [7]. Also, the “tumour growth inhibition (TGI)” value in experiment [4] (AZD5305 1 mg/kg QD) is recorded as “no or minimal (4%)”. In experiment [6] (AZD5305 1 mg/kg QD), this molecule showed a TGI of 90%.

For `CNC(=O)c1ccc(N2C(=S)N(c3ccc(C#N)c(C(F)(F)F)c3)C(=O)C2(C)C)cc1F` [Enzalutamide, 4-(3-(4-cyano-3-(trifluoromethyl)phenyl)-5,5-dimethyl-4-oxo-2-thioxoimidazolidin-1-yl)-2-fluoro-N-methylbenzamide], the AC50 in experiment [1] (LnAP-ATM-KO-CL.1) was more than 10 µM; in experiment [2], 8.33 µM; in experiment [3] (setting [8]), 1.41 µM; in experiment [3] (setting [9]), more than 10 µM; in experiment [5], 9.59 µM; in experiment [7] it was 2.94 µM. In addition, the “Sensitivity of the cell lines” value in experiment [1] (the cell lines of Example 2 (LNCAP parental and ATM-KO)) is listed as “No sensitivity could be measured”. Also, the “tumour growth inhibition (TGI)” value in experiment [4] (enzalutamide 4 mg/kg QD) is reported as “no or minimal (4%)”. This molecule also registered an inhibition of tumour growth (TGI) in experiment [6] (enzalutamide 60 mg/kg QD) of 92%.

These data come from US20250213556A1, “COMBINATION THERAPY FOR TREATING CANCER” (AstraZeneca AB, priority 2022, published 2025).
